Assay results as given in patent US12187717B2, “Compound and use thereof in treating autoimmune diseases” (PARENCHYMA BIOTECH INC., priority 2022, dated 2025).

Key:
CYP1A1 [1] = experiment: Induction of CYP1A1 mRNA expression in HepG2 (real-time PCR); assay type: cell-based, Human; details: HepG2, 1 μM, 24 hours, vs control (vehicle)
Description: In order to confirm target specificity of the compounds of an embodiment of the present invention prepared as above, it was confirmed whether the expression levels of CYP1A1 mRNA and CYP1A1 protein, which are AHR target genes, were increased.
After recovering HepG2 under culture in DMEM-fetal bovine serum (FBS) 10% medium and then confirming that the survival rate is 97% or more through trypan blue staining, the recovered product was centrifuged at a speed of 1200 rpm for 5 minutes at room temperature, and the cells were prepared by resuspending them in DMEM-fetal calf serum 10% medium at 3×10^5 cells/ml. Thereafter, the cells were dispensed onto a 60 mm dish by 3 ml, and each dish was treated with 50 μl of Compounds 6, 21, 32 and 39 at a concentration of 1 μM diluted in DMEM medium, and then cultured in a cell incubator (5% CO2 incubator) for 24 hours. As a control, 50 μl of 0.05% dimethylsulfoxide (DMSO)/DMEM medium was used for treatment.
(§1) The cultured cells were recovered to prepare an mRNA sample. […] From the separated RNA, cDNA was synthesized by reverse transcription, and the expression of CYP1A1 was confirmed through a real-time polymerase chain reaction (PCR) using iQ SYBR-Green Supermix (Bio-rad) in a CFX96 (Bio-rad) detection system. […] Herein, one (1) fold was set using the control.
(§2) The real-time polymerase chain reaction was performed under the conditions of 45 cycles at an annealing temperature of 58° C., wherein the following primer sequences were used.

CYP1A1 [2] = experiment: Induction of CYP1A1 protein expression in HepG2 (7-ethoxyresorufin/resorufin); assay type: cell-based, Human; details: HepG2, 1 μM, 24 hours, vs control (vehicle)
Description: After recovering HepG2 under culture in DMEM-fetal bovine serum (FBS) 10% medium and then confirming that the survival rate is 97% or more through trypan blue staining, the recovered product was centrifuged at a speed of 1200 rpm for 5 minutes at room temperature, and the cells were prepared by resuspending them in DMEM-fetal calf serum 10% medium at 1.5×10^5 cells/ml.
Thereafter, the cells were dispensed onto a 96-well plate by 200 μl, and each plate was treated with 3 μl of Compounds 6, 21, 32 and 39 at a concentration of 1 μM diluted in DMEM medium, and then cultured in a cell incubator (5% CO2 incubator) for 24 hours. As a control, 3 μl of 0.05% dimethylsulfoxide (DMSO)/DMEM medium was used for treatment.
After 24 hours, the medium of the plate was discarded, washed with dPBS, treated with 100 μl of 2 μM 7-ethoxyresorufin, and cultured in a cell incubator (5% CO2 incubator) for 30 minutes. After 30 minutes, each 75 μl of fluorescamine (150 μg/ml) was treated, then resorufine excitation was measured at 535 nm and emission at 590 nm. The standard curve was measured and used with 0 to 50 pmol of resorufin solution.
After measurement, all solutions were removed, followed by treating the same with 25 μl of 0.5 M sodium hydroxide (NaOH), the cells were scraped and reacted in a shaker at room temperature for 15 minutes.
After 15 minutes, protein was quantified using a Bradford method, and a value was obtained using a calculation formula (sample resorufin amount/sample protein amount), and then one (1) fold was set using the control.

IL-6 = IL-6 production of A549 epithelial cells by IL-1β stimulation; assay type: cell-based, Human; details: A549, 5 μM, 48 hours then IL-1β 24 hours, vs control
Description: In order to assess the inhibitory effects of production of IL-6 by the compounds of the present invention prepared as above, an IL-6 production test of epithelial cells by stimulation of IL-1β was performed.
After recovering A549 cells under culture in DMEM-fetal bovine serum (FBS) 10% medium and confirming that the survival rate is 97% or more through trypan blue staining, the recovered product was centrifuged at a speed of 1200 rpm for 5 minutes at room temperature, and the cells were prepared by resuspending them in DMEM-10% fetal bovine serum medium at 1×10^6 cells/3 ml. Thereafter, the cells were dispensed by 3 ml onto a 60 mm plate, and each dish was treated with 50 μl of Compounds 6, 9, 21, 32 and 39 at a concentration of 5 μM diluted in DMEM medium, and then cultured in a cell incubator (5% CO2 incubator) for 48 hours. Then, the cells were treated with 50 μl of human recombinant IL-1β at a concentration of 12.5 ng/ml diluted in DMEM medium, followed by culturing the same in a cell incubator (5% CO2 incubator) for 24 hours. As a control, 50 μl of 0.05% dimethylsulfoxide (DMSO)/DMEM medium was used for treatment.
as §1, §2

CYP1A2 = target: T1, CYP1A2 (Homo sapiens, UniProt P05177); experiment: CYP isoenzyme activity; assay type: in vitro ADME; details: 0.1 μM
T1 sequence (P05177 1-516): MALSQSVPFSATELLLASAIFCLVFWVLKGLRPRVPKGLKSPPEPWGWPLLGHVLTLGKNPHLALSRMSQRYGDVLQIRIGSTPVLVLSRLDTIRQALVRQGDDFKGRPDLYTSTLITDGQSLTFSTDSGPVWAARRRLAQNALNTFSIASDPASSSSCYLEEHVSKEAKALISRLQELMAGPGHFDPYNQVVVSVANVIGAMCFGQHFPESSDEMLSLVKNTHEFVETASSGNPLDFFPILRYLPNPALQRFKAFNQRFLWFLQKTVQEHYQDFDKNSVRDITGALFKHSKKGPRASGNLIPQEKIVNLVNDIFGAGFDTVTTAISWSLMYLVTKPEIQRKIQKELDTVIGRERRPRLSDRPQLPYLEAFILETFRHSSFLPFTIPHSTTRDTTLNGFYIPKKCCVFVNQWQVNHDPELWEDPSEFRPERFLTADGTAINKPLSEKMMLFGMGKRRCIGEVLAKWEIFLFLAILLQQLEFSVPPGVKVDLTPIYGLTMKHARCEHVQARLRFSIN

CYP2C9 = CYP2C9 (Homo sapiens, UniProt P11712); experiment: CYP isoenzyme activity; assay type: in vitro ADME; details: 0.1 μM
CYP2C19 = CYP2C19 (Homo sapiens, UniProt P33261); experiment: CYP isoenzyme activity; assay type: in vitro ADME; details: 0.1 μM
[3] = system: Foxp3-expressing regulatory T cells (Treg); experiment: Production of Foxp3-expressing regulatory T cells from naive CD4 T cells (flow cytometry); assay type: cell-based, C57BL/6 mice; details: 2.5 μM, 3 days, compared to Vehicle
Description: The spleen of C57BL/6 mice (8 to 12 weeks old, female) was excised, pulverized by adding RPMI medium, and then passed through a 40 μm cell strainer (BD Falcon), thereby obtaining a single cell suspension. The single cell suspension was centrifuged (1200 rpm, 5 minutes), and after discarding the supernatant, 1 ml of ACK lysis buffer was added, followed by stirring for 1 minute and then washing the same with RPMI medium. After the single cell suspension was centrifuged, T-cells were separated using a Mouse CD4 Naive T cell Enrichment Kit (Invitrogen). The separated T-cells were prepared by resuspending them in RPMI-fetal bovine serum (FBS) 10%+2-ME (mercaptoethanol) medium at 1×10^6/ml. For T-cell activation, 5 μg/ml anti-CD3 (eBioscience™) was dispensed by 100 μl onto a 96-well plate, reacted in a cell incubator (37° C., 5% CO2 incubator) for 4 hours, and washed with phosphate buffered saline to prepare the plate. The T-cells were dispensed by 200 μl onto the prepared plate, and each well was treated with 2 μg/ml of anti-CD28 (eBioscience™), 2 ng/ml of TGFβ-1 (R&D systems), and 100 U/ml of IL-2. Each 5 μl of Compounds 6 and 9 at a concentration of 2.5 μM diluted in RPMI-fetal bovine serum 10%+2-ME medium was used for treatment, followed by culturing the same in a cell incubator (37° C., 5% CO2 incubator) for 3 days. […]
In order to confirm the expression of Foxp3 protein, the recovered cells were placed in a 5 ml FACS tube (BD Falcon) and washed with 1 ml of phosphate buffered saline. […] The cells were washed twice with the Permeabilization buffer, suspended in 0.3 ml of FACS buffer, and measured by flow cytometry.
The promotion effects of Compound 6 and Comparative Example 1 on the production of “FoxP3-expressing regulatory T cells,” which play an important role in maintaining immune tolerance, were compared (FIG. 24). […] After 3 days, in order to confirm the effects of production of the regulatory T cells, the cultured cells were recovered and Foxp3 protein expression was measured in the same manner as in FIG. 4.

Chain of CYP2C9 (P11712 whole entry): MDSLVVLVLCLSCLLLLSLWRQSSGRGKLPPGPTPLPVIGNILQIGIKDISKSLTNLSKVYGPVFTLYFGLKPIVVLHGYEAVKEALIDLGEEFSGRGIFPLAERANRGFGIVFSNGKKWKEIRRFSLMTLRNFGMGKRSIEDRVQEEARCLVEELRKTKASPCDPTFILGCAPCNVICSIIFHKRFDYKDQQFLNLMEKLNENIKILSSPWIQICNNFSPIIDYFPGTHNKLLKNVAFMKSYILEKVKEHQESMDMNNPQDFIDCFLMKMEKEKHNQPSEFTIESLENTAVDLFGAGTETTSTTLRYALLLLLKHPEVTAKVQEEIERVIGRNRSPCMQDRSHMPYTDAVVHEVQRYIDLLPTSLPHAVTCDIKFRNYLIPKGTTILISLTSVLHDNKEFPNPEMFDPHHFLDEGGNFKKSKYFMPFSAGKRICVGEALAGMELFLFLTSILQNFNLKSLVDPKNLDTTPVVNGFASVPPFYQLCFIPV
Chain of CYP2C19 (P33261 whole entry): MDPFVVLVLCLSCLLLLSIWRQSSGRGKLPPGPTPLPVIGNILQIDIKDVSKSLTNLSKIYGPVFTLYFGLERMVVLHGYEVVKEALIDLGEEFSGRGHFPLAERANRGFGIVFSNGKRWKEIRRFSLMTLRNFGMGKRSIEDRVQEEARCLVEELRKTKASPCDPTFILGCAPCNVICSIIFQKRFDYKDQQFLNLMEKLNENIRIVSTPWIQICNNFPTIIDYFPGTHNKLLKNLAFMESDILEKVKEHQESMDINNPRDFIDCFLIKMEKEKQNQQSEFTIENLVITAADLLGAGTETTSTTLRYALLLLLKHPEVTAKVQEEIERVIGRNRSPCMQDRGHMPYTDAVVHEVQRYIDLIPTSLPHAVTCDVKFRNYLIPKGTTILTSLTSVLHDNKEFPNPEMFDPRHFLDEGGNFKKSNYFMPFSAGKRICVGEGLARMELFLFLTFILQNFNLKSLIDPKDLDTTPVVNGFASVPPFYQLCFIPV

Row | SMILES | CYP1A1 mRNA expression level (CYP1A1 [1]) | CYP1A1 protein expression level (CYP1A1 [2]) | IL-6 production of A549 by IL-1β stimulation (IL-6) | CYP1A2 activity (CYP1A2) | CYP2C9 activity (CYP2C9) | CYP2C19 activity (CYP2C19) | production of Foxp3-expressing regulatory T cells [3]
1 | CC(=O)N1CCN(c2ccc(OCC3COC(Cn4ccnc4)(c4ccc(Cl)cc4Cl)O3)cc2)CC1 (centres unmarked) [Ketoconazole] |  |  |  | 95.4 % of Control Activity | 98.6 % of Control Activity | 96.7 % of Control Activity | 
2 | CN1CCN(c2ccc3nc(NC(=O)Cc4c[nH]c5ccc(Cl)cc45)sc3c2)CC1 [Compound 9, 2-(5-chloro-1H-indol-3-yl)-N-(6-(4-methylpiperazine-1-yl)benzo[d]thiazol-2-yl)acetamide] |  |  | significantly reduced |  |  |  | markedly increased

Now from value to compound, other results behind:

Row | CYP1A1 mRNA expression level (CYP1A1 [1]) | CYP1A1 protein expression level (CYP1A1 [2]) | SMILES | IL-6 production of A549 by IL-1β stimulation (IL-6) | CYP1A2 activity (CYP1A2) | CYP2C9 activity (CYP2C9) | CYP2C19 activity (CYP2C19) | production of Foxp3-expressing regulatory T cells [3]
3 | significantly induced | significantly higher | COc1ccc2[nH]cc(CC(=O)Nc3nc4ccc(N5CCOCC5)cc4s3)c2c1 [Compound 39, 2-(5-methoxy-1H-indol-3-yl)-N-(6-morpholinobenzo[d]thiazol-2-yl)acetamide] | significantly reduced |  |  |  | 
4 | significantly induced | significantly higher | Cn1cc(CC(=O)Nc2nc3ccc(N4CCOCC4)cc3s2)c2cc(Cl)ccc21 [Compound 21, 2-(5-chloro-1-methyl-1H-indol-3-yl)-N-(6-morpholinobenzo[d]thiazol-2-yl)acetamide] | significantly reduced |  |  |  | 
5 | significantly induced | significantly higher | O=C(Cc1c[nH]c2ccc(O)cc12)Nc1nc2ccc(N3CCOCC3)cc2s1 [Compound 32, 2-(5-hydroxy-1H-indol-3-yl)-N-(6-morpholinobenzo[d]thiazol-2-yl)acetamide] | significantly reduced |  |  |  | 
